Data published in PubChem BioAssay (NCI).
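GI50 = concentration required for 50% inhibition of growth. TGI: concentration producing complete growth inhibition.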

What was measured:
Test in all cases: growth of human tumour cells (NCI), 384-well format
[1] = test system: 786-0 renal
[2] = test system: A498 renal
[3] = test system: A549 NSCLC
[4] = test system: ACHN renal
[5] = test system: BT-549 breast
[6] = test system: CAKI-1 renal
[7] = test system: CCRF-CEM leukemia
[8] = test system: DU-145 prostate
[9] = test system: EKVX NSCLC
[10] = test system: HCC-2998 colon
[11] = test system: HCT-116 colon
[12] = test system: HCT-15 colon
[13] = test system: HL-60(TB) leukemia
[14] = test system: HOP-62 NSCLC
[15] = test system: HOP-92 NSCLC
[16] = test system: HS 578T breast
[17] = test system: IGROV1 ovarian
[18] = test system: K-562 leukemia
[19] = test system: KM12 colon
[20] = test system: LOX IMVI melanoma
[21] = test system: M14 melanoma
[22] = test system: MALME-3M melanoma
[23] = test system: MCF7 breast
[24] = test system: MDA-MB-231 breast
[25] = test system: MDA-MB-435 melanoma
[26] = test system: MDA-MB-468 breast
[27] = test system: MOLT-4 leukemia
[28] = test system: NCI-H226 lung
[29] = test system: NCI-H322M lung
[30] = test system: NCI-H460 NSCLC
[31] = test system: NCI-H522 lung
[32] = test system: NCI/ADR-RES ovarian
[33] = test system: OVCAR-3 ovarian
[34] = test system: OVCAR-4 ovarian
[35] = test system: OVCAR-5 ovarian
[36] = test system: OVCAR-8 ovarian
[37] = test system: PC-3 prostate
[38] = test system: RPMI-8226 leukemia
[39] = test system: RXF 393 renal
[40] = test system: SF-268 CNS
[41] = test system: SF-295 CNS
[42] = test system: SF-539 CNS
[43] = test system: SK-MEL-2 melanoma
[44] = test system: SK-MEL-5 melanoma
[45] = test system: SK-OV-3 ovarian
[46] = test system: SNB-19 CNS
[47] = test system: SNB-75 CNS
[48] = test system: SR leukemia
[49] = test system: SW-620 colon
[50] = test system: T-47D breast
[51] = test system: TK-10 renal
[52] = test system: U251 glioblastoma
[53] = test system: UACC-62 melanoma
[54] = test system: UO-31 renal
[55] = test system: COLO 205 colon
[56] = test system: HT29 colon
[57] = test system: NCI-H23 lung
[58] = test system: SK-MEL-28 melanoma
[59] = test system: SN12C renal
[60] = test system: UACC-257 melanoma

Cc1cnc(NC2CCOCC2)nc1-n1cnc(C(=O)N[C@H](CN)c2cc(F)cc(Cl)c2)c1
GI50 [1]: 2.2 µM
TGI [1]: 16.3 µM
GI50 [2]: 0.405 µM
TGI [2]: 12.1 µM
GI50 [3]: 0.0423 µM
TGI [3]: 18.5 µM
GI50 [4]: 1.27 µM
TGI [4]: 18 µM
GI50 [5]: 2.21 µM
TGI [5]: 13 µM
GI50 [6]: 0.0705 µM
TGI [6]: 11.5 µM
GI50 [7]: 1.47 µM
TGI [7]: 3.19 µM
GI50 [8]: 0.768 µM
TGI [8]: 25.5 µM
GI50 [9]: 0.524 µM
TGI [9]: 14.4 µM
GI50 [10]: < 0.01 µM
TGI [10]: 0.0123 µM
GI50 [11]: < 0.01 µM
TGI [11]: 0.0348 µM
GI50 [12]: 2.78 µM
TGI [12]: 20.8 µM
GI50 [13]: 0.0172 µM
TGI [13]: 1.24 µM
GI50 [14]: 1.26 µM
TGI [14]: 17.3 µM
GI50 [15]: 0.0238 µM
TGI [15]: 0.0814 µM
GI50 [16]: 0.509 µM
TGI [16]: 21.1 µM
GI50 [17]: 0.0403 µM
TGI [17]: 7.92 µM
GI50 [18]: 0.198 µM
TGI [18]: 2.52 µM
GI50 [19]: 0.0295 µM
TGI [19]: 17.5 µM
GI50 [20]: < 0.01 µM
TGI [20]: 0.0258 µM
GI50 [21]: < 0.01 µM
TGI [21]: 0.0408 µM
GI50 [22]: < 0.01 µM
GI50 [23]: 1.09 µM
TGI [23]: 13.2 µM
GI50 [24]: 0.0374 µM
TGI [24]: 21.5 µM
GI50 [25]: 0.0181 µM
TGI [25]: 17.9 µM
GI50 [26]: 0.351 µM
TGI [26]: 2.32 µM
GI50 [27]: 1.26 µM
TGI [27]: 2.54 µM
GI50 [28]: 0.063 µM
TGI [28]: 38.3 µM
GI50 [29]: 0.0215 µM
TGI [29]: 23.9 µM
GI50 [30]: 0.0985 µM
TGI [30]: 13.6 µM
GI50 [31]: 0.0524 µM
TGI [31]: 16.9 µM
GI50 [32]: 25.7 µM
TGI [32]: > 100 µM
GI50 [33]: 1.05 µM
TGI [33]: 16.8 µM
GI50 [34]: 21.1 µM
TGI [34]: 48.5 µM
GI50 [35]: < 0.01 µM
TGI [35]: 46.9 µM
GI50 [36]: 4.35 µM
TGI [36]: 19.7 µM
GI50 [37]: 6.1 µM
TGI [37]: 20.2 µM
GI50 [38]: 2.55 µM
TGI [38]: 14.5 µM
GI50 [39]: 1.59 µM
TGI [39]: 15 µM
GI50 [40]: 6.61 µM
TGI [40]: 20.4 µM
GI50 [41]: 3.58 µM
TGI [41]: 16.3 µM
GI50 [42]: 2.05 µM
TGI [42]: 12.4 µM
GI50 [43]: < 0.01 µM
TGI [43]: 0.0235 µM
GI50 [44]: 0.0173 µM
TGI [44]: 4.58 µM
GI50 [45]: 0.807 µM
TGI [45]: 15.4 µM
GI50 [46]: 3.68 µM
TGI [46]: 21.5 µM
GI50 [47]: 11.4 µM
TGI [47]: 23.6 µM
GI50 [48]: 2.54 µM
TGI [48]: 11 µM
GI50 [49]: 0.0225 µM
TGI [49]: 10.5 µM
GI50 [50]: 15.6 µM
TGI [50]: 30.3 µM
GI50 [51]: 0.0919 µM
TGI [51]: 3.7 µM
GI50 [52]: 0.0756 µM
TGI [52]: 10.5 µM
GI50 [53]: < 0.01 µM
TGI [53]: 0.0412 µM
GI50 [54]: 0.577 µM
TGI [54]: 10.6 µM

CNC[C@@H](NC(=O)c1ccc(-c2nc([C@H]3CC[C@H](O)[C@@H](F)C3)cnc2N)cc1F)c1cc(F)cc(Br)c1
GI50 [1]: 15 µM
TGI [1]: 28.3 µM
GI50 [2]: 16.6 µM
TGI [2]: 30.3 µM
GI50 [3]: 17 µM
TGI [3]: 31.1 µM
GI50 [4]: 16.9 µM
TGI [4]: 30.6 µM
GI50 [5]: 13.7 µM
TGI [5]: 26.6 µM
GI50 [6]: 16.9 µM
TGI [6]: 30.9 µM
GI50 [7]: 16.8 µM
TGI [7]: 30.5 µM
GI50 [55]: 16.4 µM
TGI [55]: 30.1 µM
GI50 [8]: 18.5 µM
TGI [8]: 32.8 µM
GI50 [10]: 17.2 µM
TGI [10]: 31 µM
GI50 [11]: 16.8 µM
TGI [11]: 30.6 µM
GI50 [12]: 19.4 µM
TGI [12]: 33.7 µM
GI50 [13]: 13.9 µM
TGI [13]: 26.9 µM
GI50 [14]: 17.8 µM
TGI [14]: 31.7 µM
GI50 [15]: 16.8 µM
TGI [15]: 30.6 µM
GI50 [56]: 16.1 µM
TGI [56]: 29.9 µM
GI50 [17]: 17.9 µM
TGI [17]: 34.5 µM
GI50 [18]: 16.8 µM
TGI [18]: 30.5 µM
GI50 [19]: 17.5 µM
TGI [19]: 31.5 µM
GI50 [20]: 23.1 µM
TGI [20]: 37.7 µM
GI50 [21]: 18.2 µM
TGI [21]: 32.2 µM
GI50 [22]: 17.1 µM
TGI [22]: 30.9 µM
GI50 [23]: 18 µM
TGI [23]: 31.9 µM
GI50 [24]: 20.1 µM
TGI [24]: 34.4 µM
GI50 [25]: 20.3 µM
TGI [25]: 34.7 µM
GI50 [26]: 18.3 µM
TGI [26]: 32.2 µM
GI50 [27]: 17.7 µM
TGI [27]: 31.6 µM
GI50 [28]: 18.6 µM
TGI [28]: 33 µM
GI50 [57]: 19.4 µM
TGI [57]: 36.9 µM
GI50 [29]: 18.7 µM
TGI [29]: 33.4 µM
GI50 [30]: 18.8 µM
TGI [30]: 33.2 µM
GI50 [31]: 18.2 µM
TGI [31]: 32.1 µM
GI50 [32]: 48.5 µM
TGI [32]: > 100 µM
GI50 [33]: 18 µM
TGI [33]: 32 µM
GI50 [34]: 19.9 µM
TGI [34]: 36.1 µM
GI50 [35]: 17.5 µM
TGI [35]: 33.5 µM
GI50 [36]: 18.9 µM
TGI [36]: 33.1 µM
GI50 [37]: 17.6 µM
TGI [37]: 31.5 µM
GI50 [38]: 12.4 µM
TGI [38]: 24.9 µM
GI50 [39]: 15.3 µM
TGI [39]: 28.7 µM
GI50 [40]: 17.2 µM
TGI [40]: 31.1 µM
GI50 [41]: 18.5 µM
TGI [41]: 32.6 µM
GI50 [42]: 17.2 µM
TGI [42]: 31 µM
GI50 [43]: 20.5 µM
TGI [43]: 34.8 µM
GI50 [58]: 18.8 µM
TGI [58]: 33 µM
GI50 [44]: 20.8 µM
TGI [44]: 35.2 µM
GI50 [45]: 16.9 µM
TGI [45]: 30.7 µM
GI50 [59]: 18.5 µM
TGI [59]: 32.5 µM
GI50 [46]: 19.1 µM
TGI [46]: 33.3 µM
GI50 [48]: 12.1 µM
TGI [48]: 24.5 µM
GI50 [49]: 20.6 µM
TGI [49]: 35.1 µM
GI50 [50]: 22.5 µM
TGI [50]: 37.2 µM
GI50 [51]: 17 µM
TGI [51]: 31.4 µM
GI50 [52]: 17.5 µM
TGI [52]: 31.4 µM
GI50 [60]: 14.6 µM
TGI [60]: 27.8 µM
GI50 [53]: 16.7 µM
TGI [53]: 30.5 µM
GI50 [54]: 1.39 µM
TGI [54]: 2.87 µM
